Results reported in patent publication US10988478B1, “Pyrazolo[1,5a]pyrimidine derivatives as IRAK4 modulators” (Genentech, Inc., priority 2015, dated 2021).

Target: human IRAK4 (Homo sapiens (Human), UniProt Q9NWZ3)
Test: IRAK4 kinase inhibition, Transcreener fluorescence polarization ADP assay
Format: biochemical
Details: recombinant full-length His6-IRAK4; 125 uM ATP; 90 min; Ki computed using ATP Km 642 uM
Protocol: Compounds were assayed for inhibition of human IRAK4 and IRAK1 catalytic activity using recombinant enzyme produced from insect cells. Full-length IRAK4 protein, carrying an N-terminal His6-Tag, was obtained from Life Technologies (Carlsbad, Calif., USA). The IRAK1 construct was produced internally and was comprised of IRAK1 residues Arg194 to Ser712, preceded by an NH2-terminal His6 tag and the coding sequence for glutathione-S-transferase.

Chain of human IRAK4 (Q9NWZ3 whole entry): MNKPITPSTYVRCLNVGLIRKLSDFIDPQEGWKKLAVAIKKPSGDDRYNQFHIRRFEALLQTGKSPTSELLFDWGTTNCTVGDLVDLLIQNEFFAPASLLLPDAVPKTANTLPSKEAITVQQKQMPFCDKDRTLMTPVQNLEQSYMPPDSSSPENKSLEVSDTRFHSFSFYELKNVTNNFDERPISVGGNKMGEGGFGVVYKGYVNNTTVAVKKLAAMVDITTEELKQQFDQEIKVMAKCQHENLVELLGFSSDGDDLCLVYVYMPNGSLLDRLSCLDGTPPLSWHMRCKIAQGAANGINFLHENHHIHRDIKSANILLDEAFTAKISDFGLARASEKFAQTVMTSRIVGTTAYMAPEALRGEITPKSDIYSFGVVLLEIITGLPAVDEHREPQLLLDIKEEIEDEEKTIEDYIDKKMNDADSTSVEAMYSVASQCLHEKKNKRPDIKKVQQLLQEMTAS

Structure (SMILES) | Ki [nM]
CC(C)(O)[C@H](F)CN1Cc2cc(NC(=O)c3cnn4cc(Cl)cnc34)c(N3CCOCC3)cc2C1=O [Example 271, 6-Chloro-N-[2-[(2R)-2-fluoro-3-hydroxy-3-methyl-butyl]-6-morpholino-1-oxo-isoindolin-5-yl]pyrazolo[1,5-a]pyrimidine-3-carboxamide] | 1.7
CC(C)N1Cc2cc(NC(=O)c3cnn4cccnc34)c(N3CCN(CC(N)=O)CC3)cc2C1=O [Example 272, N-[6-[4-(2-Amino-2-oxo-ethyl)piperazin-1-yl]-2-isopropyl-1-oxo-isoindolin-5-yl]pyrazolo[1,5-a]pyrimidine-3-carboxamide] | 4
O=C(Nc1cc2c(cc1N1CCOCC1)C(=O)N(CC(F)(F)CO)C2)c1cnn2cccnc12 [Example 273, N-[2-(2,2-Difluoro-3-hydroxy-propyl)-6-morpholino-1-oxo-isoindolin-5-yl]pyrazolo[1,5-a]pyrimidine-3-carboxamide] | 37
CC(C)(O)[C@H](F)CN1Cc2cc(NC(=O)c3cnn4cccnc34)c(N3CCC(C#N)CC3)cc2C1=O [Example 274, (R)-N-(6-(4-cyanopiperidin-1-yl)-2-(2-fluoro-3-hydroxy-3-methylbutyl)-1-oxoisoindolin-5-yl)pyrazolo[1,5-a]pyrimidine-3-carboxamide] | 1.4
CC(C)(O)CCN1Cc2cc(NC(=O)c3cnn4cccnc34)c(N3CCN(CC(F)F)CC3)cc2C1=O [Example 279, N-[6-[4-(2,2-Difluoroethyl)piperazin-1-yl]-2-(3-hydroxy-3-methyl-butyl)-1-oxo-isoindolin-5-yl]pyrazolo[1,5-a]pyrimidine-3-carboxamide] | 1.8
CC(C)(O)CCN1Cc2cc(NC(=O)c3cnn4cccnc34)c(N3CCN(CC(N)=O)CC3)cc2C1=O [Example 280, N-[6-[4-(2-Amino-2-oxo-ethyl)piperazin-1-yl]-2-(3-hydroxy-3-methyl-butyl)-1-oxo-isoindolin-5-yl]pyrazolo[1,5-a]pyrimidine-3-carboxamide] | 2
CN1CCC(N2Cc3cc(NC(=O)c4cnn5cccnc45)c(N4CCN(CC(N)=O)CC4)cc3C2=O)CC1 [Example 281, N-[6-[4-(2-Amino-2-oxo-ethyl)piperazin-1-yl]-2-(1-methyl-4-piperidyl)-1-oxo-isoindolin-5-yl]pyrazolo[1,5-a]pyrimidine-3-carboxamide] | 2.4
Cc1cnc2c(C(=O)Nc3cc4c(cc3N3CCN(CC(F)F)CC3)C(=O)N(C[C@@H](F)C(C)(C)O)C4)cnn2c1 [Example 284, N-[6-[4-(2,2-Difluoroethyl)piperazin-1-yl]-2-[(2R)-2-fluoro-3-hydroxy-3-methyl-butyl]-1-oxo-isoindolin-5-yl]-6-methyl-pyrazolo[1,5-a]pyrimidine-3-carboxamide] | 2
CC(C)(O)[C@H](F)CN1Cc2cc(NC(=O)c3cnn4cc(Cl)cnc34)c(N3CCN(CC(F)F)CC3)cc2C1=O [Example 285, 6-Chloro-N-[6-[4-(2,2-difluoroethyl)piperazin-1-yl]-2-[(2R)-2-fluoro-3-hydroxy-3-methyl-butyl]-1-oxo-isoindolin-5-yl]pyrazolo[1,5-a]pyrimidine-3-carboxamide] | 2
CC(C)(O)[C@H](F)CN1Cc2cc(NC(=O)c3cnn4cc(C(N)=O)cnc34)c(N3CCOCC3)cc2C1=O [Example 286, N3-[2-[(2R)-2-Fluoro-3-hydroxy-3-methyl-butyl]-6-morpholino-1-oxo-isoindolin-5-yl]pyrazolo[1,5-a]pyrimidine-3,6-dicarboxamide] | 2
CC(C)N1Cc2cc(NC(=O)c3cnn4cccnc34)c(N3CCOCC3)cc2S1(=O)=O [Example 287, N-(2-Isopropyl-6-morpholino-1,1-dioxo-3H-1,2-benzothiazol-5-yl)pyrazolo[1,5-a] pyrimidine-3-carboxamide] | 26
CC(C)(O)CN1Cc2cc(NC(=O)c3cnn4cccnc34)c(N3CCOCC3)cc2S1(=O)=O [Example 288, N-[2-(2-Hydroxy-2-methyl-propyl)-6-morpholino-1,1-dioxo-3H-1,2-benzothiazol-5-yl]pyrazolo[1,5-a]pyrimidine-3-carboxamide] | 63
